Tested on: cotton aphid (Aphis gossypii)
Test: Cotton aphid test in the same manner, more definitive percent mortality at selected rates and exposure times (Table 3)
Type: in vivo
Description: The compounds of formula I useful in the present invention were tested for insecticidal activity by observing mortality in a population of cotton aphid (Aphis gossypii) on treated cotton plants caused by a test compound, when compared to like populations of cotton aphid on untreated plants. These tests were conducted in the following manner:
For each rate of application of test compound, two seven-to-ten days old cotton seedlings (Gossypium hirsutium) grown in 7.6 cm diameter pots were selected for the test. Each test plant was infested with about 120 adult cotton aphids by placing onto each test plant cuttings of leaves from cotton plants grown in a cotton aphid colony. Once infested, the test plants were maintained for up to about 12 hours to allow complete translocation of the aphids onto the test plant. A solution comprising 1000 part per million (ppm) of each test compound was prepared by dissolving 10 milligrams of the test compound in 1 mL of acetone. Each solution was then diluted with 9 mL of a solution of 0.03 mL of polyoxyethylene(10) isooctylphenyl ether in 100 mL of water. About 2.5 mL of solution of each test compound was needed to spray each replicate of test plant (5 mL total for each test compound). If needed, the solution of 1000 ppm of test compound was serially diluted with a solution of 10% acetone and 300 ppm of polyoxyethylene(10) isooctylphenyl ether in water to provide solutions of each test compound for lower rates of application, for example, 300 ppm, 100 ppm, 30 ppm, or 10 ppm. Each replicate of test plant was sprayed with the solutions of test compound until run-off on both the upper and lower surfaces of the leaves. All the test plants were sprayed using a DeVilbus Atomizer Model 152 (Sunrise Medical, Carlsbad, Calif.) at a pressure of about 0.63-0.74 kilogram per square centimeter from a distance of about 30.5 centimeters from the test plants. For comparison purposes, a solution of a standard, such as amitraz or demethylchlordimeform (DCDM), prepared in a manner analogous to that set forth above, as well as a solution of 10% acetone and 300 ppm of polyoxyethylene(10) isooctylphenyl ether in water containing no test compound were also sprayed onto test plants. Upon completion of spraying the solutions of test compound, the solution of standard, and the solution containing no test compound, the plants were allowed to dry. […] After this time, each plant was assessed for percent mortality caused by the test compound when compared to the population of aphids that was infested onto the test plants prior to treatment with test compound. […] If there was 75% mortality or greater of the cotton aphid, a test compound was designated as being more insecticidally active (A).
In a test conducted in the same manner as set forth above, certain compounds of formula I were tested to determine a more definitive percent mortality of cotton aphid.

CN1CCC(=C2c3ccccc3Oc3ccc(F)cc32)CC1 [Compound 9]
Percent Mortality of Cotton Aphid on Cotton Plants (100 ppm, 72 hours exposure): 26%

CN1CCC(=C2c3ccccc3Oc3c(F)cccc32)CC1 [Compound 11]
Percent Mortality of Cotton Aphid on Cotton Plants (100 ppm, 96 hours exposure): 42%

CN1CCN(C2Cc3ccc(F)cc3Sc3ccccc32)CC1 (stereo not shown) [Compound 119]
Percent Mortality of Cotton Aphid on Cotton Plants (100 ppm, 72 hours exposure): 85%

COc1cccc2c1Sc1ccccc1CC2N1CCN(C)CC1 (stereo not shown) [Compound 102]
Percent Mortality of Cotton Aphid on Cotton Plants (100 ppm, 72 hours exposure): 33%

CN1CCN(C2Cc3ccccc3Oc3ccc(C#C[Si](C)(C)C)cc32)CC1 (stereo not shown) [Compound 80]
Percent Mortality of Cotton Aphid on Cotton Plants (1000 ppm, 168 hours exposure): 83%

CN1CCN(C2Cc3ccccc3Oc3ccc(C(F)(F)F)cc32)CC1 (stereo not shown) [Compound 69]
Percent Mortality of Cotton Aphid on Cotton Plants (100 ppm, 168 hours exposure): 69%

CN1CCN(C2=Nc3ccccc3Sc3ccc(Cl)cc32)CC1 [Compound 189]
Percent Mortality of Cotton Aphid on Cotton Plants (1000 ppm, 168 hours exposure): 55%

CN1CCN(C2Cc3ccccc3Oc3ccc([S+]([O-])C(F)(F)F)cc32)CC1 (stereo not shown) [Compound 76]
Percent Mortality of Cotton Aphid on Cotton Plants (100 ppm, 168 hours exposure): 32%

CN1CCN(C2Cc3ccccc3Oc3ccc(OC(F)(F)F)cc32)CC1 (stereo not shown) [Compound 71]
Percent Mortality of Cotton Aphid on Cotton Plants (100 ppm, 168 hours exposure): 100%

CSc1ccc2c(c1)C(N1CCN(C)CC1)Cc1cc(F)ccc1S2 (stereo not shown) [Compound 122]
Percent Mortality of Cotton Aphid on Cotton Plants (100 ppm, 72 hours exposure): 88%

CN1CCN(C2Cc3ccccc3Sc3c(F)cccc32)CC1 (stereo not shown) [Compound 94]
Percent Mortality of Cotton Aphid on Cotton Plants (1000 ppm, 72 hours exposure): 100%

CCN(CC)CCOC1Cc2ccccc2Sc2ccc(OC(F)(F)F)cc21 (stereo not shown) [Compound 52]
Percent Mortality of Cotton Aphid on Cotton Plants (300 ppm, 72 hours exposure): 100%

CN1CCN(C2Cc3ccccc3Oc3ccc(F)cc32)CC1 (stereo not shown) [Compound 66]
Percent Mortality of Cotton Aphid on Cotton Plants (100 ppm, 168 hours exposure): 61%

CN1CCN(C2Cc3ccccc3Sc3ccc(C(F)(F)F)cc32)CC1 (stereo not shown) [Compound 105]
Percent Mortality of Cotton Aphid on Cotton Plants (1000 ppm, 96 hours exposure): 85%

CC(C)c1ccc2c(c1)C(N1CCN(C)CC1)Cc1ccc(F)cc1S2.O=C(O)/C=C\C(=O)O (stereo not shown) [Compound 128]
Percent Mortality of Cotton Aphid on Cotton Plants (100 ppm, 72 hours exposure): 95%

CN1CCN(C2Cc3ccccc3Oc3c(Cl)cc(Cl)cc32)CC1 (stereo not shown) [Compound 83]
Percent Mortality of Cotton Aphid on Cotton Plants (100 ppm, 168 hours exposure): 41%

CN1CCN(CCCN2c3ccccc3Sc3ccc(C(F)(F)F)cc32)CC1.Cl.Cl [Compound 207]
Percent Mortality of Cotton Aphid on Cotton Plants (1000 ppm, 72 hours exposure): 25%

CN1CCN(C2=Nc3ccccc3Sc3ccc(OC(F)(F)F)cc32)CC1 [Compound 194]
Percent Mortality of Cotton Aphid on Cotton Plants (100 ppm, 168 hours exposure): 51%

CN1CCN(C2Cc3ccccc3Oc3c(F)cc(Cl)cc32)CC1 (stereo not shown) [Compound 85]
Percent Mortality of Cotton Aphid on Cotton Plants (1000 ppm, 168 hours exposure): 92%

C#Cc1ccc2c(c1)C(N1CCN(C)CC1)Cc1ccccc1O2 (stereo not shown) [Compound 79]
Percent Mortality of Cotton Aphid on Cotton Plants (100 ppm, 168 hours exposure): 35%

Cc1cc2c(cc1F)Sc1ccccc1CC2N1CCN(C)CC1 (stereo not shown) [Compound 111]
Percent Mortality of Cotton Aphid on Cotton Plants (100 ppm, 72 hours exposure): 94%

CN1CCN(C2Cc3ccccc3Sc3ccc(C4CCCC4)cc32)CC1 (stereo not shown) [Compound 113]
Percent Mortality of Cotton Aphid on Cotton Plants (100 ppm, 72 hours exposure): 78%

CN1CCN(C2Cc3ccccc3Oc3ccc(Cl)cc32)CC1 (stereo not shown) [Compound 64]
Percent Mortality of Cotton Aphid on Cotton Plants (100 ppm, 168 hours exposure): 74%

CN1CCN(C2Cc3cc(F)ccc3Sc3ccc(Cl)cc32)CC1 (stereo not shown) [Compound 121]
Percent Mortality of Cotton Aphid on Cotton Plants (1000 ppm, 72 hours exposure): 65%

C[N+]1([O-])CCN(C2Cc3ccccc3Sc3ccc(OC(F)(F)F)cc32)CC1 (stereo not shown) [Compound 107]
Percent Mortality of Cotton Aphid on Cotton Plants (100 ppm, 168 hours exposure): 82%

CN1CCN(C2Cc3ccccc3Sc3cc(F)c(Cl)cc32)CC1 (stereo not shown) [Compound 95]
Percent Mortality of Cotton Aphid on Cotton Plants (1000 ppm, 72 hours exposure): 82%

CC(C)N1CCC(=C2c3ccccc3Sc3ccccc32)CC1 [Compound 3]
Percent Mortality of Cotton Aphid on Cotton Plants (100 ppm, 96 hours exposure): 80%

CSc1ccc2c(c1)C(N1CCCN(C)CC1)Cc1ccccc1S2 (stereo not shown) [Compound 183]
Percent Mortality of Cotton Aphid on Cotton Plants (1000 ppm, 168 hours exposure): 100%

CN1CCN(C2Cc3ccccc3Oc3c(F)cc(Br)cc32)CC1 (stereo not shown) [Compound 88]
Percent Mortality of Cotton Aphid on Cotton Plants (100 ppm, 168 hours exposure): 35%

CN1CCN(C2Cc3ccccc3Sc3c(F)ccc(F)c32)CC1 (stereo not shown) [Compound 97]
Percent Mortality of Cotton Aphid on Cotton Plants (100 ppm, 72 hours exposure): 65%

CN1CCN(C2Cc3ccccc3Oc3cc(Cl)c(Cl)cc32)CC1 (stereo not shown) [Compound 82]
Percent Mortality of Cotton Aphid on Cotton Plants (100 ppm, 168 hours exposure): 98%

CN1CCN(C2Cc3ccccc3Oc3ccc(SC(F)(F)F)cc32)CC1 (stereo not shown) [Compound 75]
Percent Mortality of Cotton Aphid on Cotton Plants (100 ppm, 168 hours exposure): 86%

CN1CCN(C2Cc3ccc(F)cc3Sc3ccc(OC(F)(F)F)cc32)CC1 (stereo not shown) [Compound 126]
Percent Mortality of Cotton Aphid on Cotton Plants (100 ppm, 168 hours exposure): 100%

Cc1cc(Br)cc2c1Oc1ccccc1CC2N1CCN(C)CC1 (stereo not shown) [Compound 89]
Percent Mortality of Cotton Aphid on Cotton Plants (100 ppm, 168 hours exposure): 55%

CN1CCC(=C2c3ccccc3Oc3ccc(C(F)(F)F)cc32)CC1 [Compound 15]
Percent Mortality of Cotton Aphid on Cotton Plants (100 ppm, 96 hours exposure): 28%

CN1CCN(C2Cc3ccccc3Oc3ccc(I)cc32)CC1 (stereo not shown) [Compound 67]
Percent Mortality of Cotton Aphid on Cotton Plants (100 ppm, 168 hours exposure): 75%

CN1CCN(C2Cc3ccccc3Sc3c(F)cc(Cl)cc32)CC1.O=S(O)S(=O)(=O)O (stereo not shown) [Compound 96]
Percent Mortality of Cotton Aphid on Cotton Plants (300 ppm, 168 hours exposure): 100%

CC(C)c1ccc2c(c1)C(N1CCN(C)CC1)Cc1ccc(F)cc1S2 (stereo not shown) [Compound 127]
Percent Mortality of Cotton Aphid on Cotton Plants (1000 ppm, 168 hours exposure): 100%

CN1CCN(C2Cc3ccccc3Sc3cccc(C4CC4)c32)CC1 (stereo not shown) [Compound 112]
Percent Mortality of Cotton Aphid on Cotton Plants (100 ppm, 72 hours exposure): 92%

Cl.Cl.OCCN1CCN(CCCN2c3ccccc3Sc3ccc(C(F)(F)F)cc32)CC1 [Compound 208]
Percent Mortality of Cotton Aphid on Cotton Plants (500 ppm, 72 hours exposure): 43%

CN1CCN(C2Cc3ccccc3Oc3c(Cl)cc(F)cc32)CC1 (stereo not shown) [Compound 87]
Percent Mortality of Cotton Aphid on Cotton Plants (1000 ppm, 168 hours exposure): 97%

CN1CCN(C2Cc3ccccc3Sc3ccc(OC(F)(F)C(F)F)cc32)CC1 (stereo not shown) [Compound 109]
Percent Mortality of Cotton Aphid on Cotton Plants (1000 ppm, 168 hours exposure): 100%

CN1CCN(C2Cc3ccccc3Oc3ccc(Br)cc32)CC1 (stereo not shown) [Compound 65]
Percent Mortality of Cotton Aphid on Cotton Plants (100 ppm, 168 hours exposure): 100%

CSc1ccc2c(c1)C(N1CCN(C)CC1)Cc1ccccc1O2 (stereo not shown) [Compound 70]
Percent Mortality of Cotton Aphid on Cotton Plants (100 ppm, 168 hours exposure): 57%

CN1CCC(=C2c3ccccc3COc3ccccc32)CC1.Cl [Compound 26]
Percent Mortality of Cotton Aphid on Cotton Plants (100 ppm, 72 hours exposure): 84%

C=Cc1ccc2c(c1)C(N1CCN(C)CC1)Cc1ccccc1O2 (stereo not shown) [Compound 78]
Percent Mortality of Cotton Aphid on Cotton Plants (100 ppm, 168 hours exposure): 53%

CCOC(=O)CCN1CCC(=C2c3ccccc3Oc3ccccc32)CC1 [Compound 20]
Percent Mortality of Cotton Aphid on Cotton Plants (100 ppm, 72 hours exposure): 37%

CN1CCN(C2Cc3ccc(F)cc3Sc3ccc(OC(F)(F)F)cc32)CC1 (stereo not shown) [Compound 108]
Percent Mortality of Cotton Aphid on Cotton Plants (1000 ppm, 168 hours exposure): 100%

CCc1ccc2c(c1)C(N1CCN(C)CC1)Cc1ccccc1S2.O=S(=O)(O)O (stereo not shown) [Compound 98]
Percent Mortality of Cotton Aphid on Cotton Plants (100 ppm, 168 hours exposure): 90%

CSc1ccc2c(c1)C(N1CCN(C)CC1)Cc1ccccc1S2.O=C(O)/C=C\C(=O)O (stereo not shown) [Compound 103]
Percent Mortality of Cotton Aphid on Cotton Plants (1000 ppm, 72 hours exposure): 90%

CN1CCCN(C2Cc3ccccc3Oc3ccc(OC(F)(F)F)cc32)CC1 (stereo not shown) [Compound 186]
Percent Mortality of Cotton Aphid on Cotton Plants (100 ppm, 168 hours exposure): 100%

CCSc1ccc2c(c1)C(N1CCN(C)CC1)Cc1ccc(F)cc1S2 (stereo not shown) [Compound 124]
Percent Mortality of Cotton Aphid on Cotton Plants (100 ppm, 72 hours exposure): 95%

CCc1ccc2c(c1)C(=C1CCN(C)CC1)c1ccccc1O2 [Compound 12]
Percent Mortality of Cotton Aphid on Cotton Plants (100 ppm, 72 hours exposure): 26%

C[N+]1([O-])CCN(C2Cc3ccccc3Oc3ccc(OC(F)(F)F)cc32)CC1 (stereo not shown) [Compound 72]
Percent Mortality of Cotton Aphid on Cotton Plants (100 ppm, 168 hours exposure): 100%

CN1CCN(C2Cc3ccccc3Sc3c2ccc(Cl)c3Cl)CC1.O=C(O)/C=C\C(=O)O (stereo not shown) [Compound 110]
Percent Mortality of Cotton Aphid on Cotton Plants (300 ppm, 168 hours exposure): 65%

CN1CCN(C2Cc3cc(Cl)ccc3Sc3cc(Cl)ccc32)CC1 (stereo not shown) [Compound 92]
Percent Mortality of Cotton Aphid on Cotton Plants (100 ppm, 72 hours exposure): 48%

COc1ccc2c(c1)N(CCCN(C)C)c1ccccc1S2 [Compound 205]
Percent Mortality of Cotton Aphid on Cotton Plants (500 ppm, 72 hours exposure): 40%

CSc1ccc2c(c1)C(N1CCN(C)CC1)Cc1ccc(F)cc1S2 (stereo not shown) [Compound 123]
Percent Mortality of Cotton Aphid on Cotton Plants (100 ppm, 72 hours exposure): 96%

CN1CCN(C2Cc3ccccc3Sc3ccccc32)CC1.O=C(O)/C=C\C(=O)O (stereo not shown) [Compound 90]
Percent Mortality of Cotton Aphid on Cotton Plants (1000 ppm, 168 hours exposure): 74%

CN1CCN(C2Cc3ccccc3Oc3cc(OC(F)(F)F)ccc32)CC1 (stereo not shown) [Compound 73]
Percent Mortality of Cotton Aphid on Cotton Plants (100 ppm, 168 hours exposure): 35%

CN1CCN(C2Cc3ccccc3Oc3ccc(S(=O)(=O)C(F)(F)F)cc32)CC1 (stereo not shown) [Compound 77]
Percent Mortality of Cotton Aphid on Cotton Plants (100 ppm, 168 hours exposure): 37%

CN1CCN(C2Cc3cc(F)ccc3Sc3ccccc32)CC1 (stereo not shown) [Compound 118]
Percent Mortality of Cotton Aphid on Cotton Plants (100 ppm, 72 hours exposure): 85%

COc1ccc2c(c1)Sc1ccccc1CC2N1CCN(C)CC1 (stereo not shown) [Compound 101]
Percent Mortality of Cotton Aphid on Cotton Plants (100 ppm, 72 hours exposure): 60%

CC(=O)c1ccc2c(c1)C(N1CCN(C)CC1)Cc1ccccc1S2 (stereo not shown) [Compound 115]
Percent Mortality of Cotton Aphid on Cotton Plants (100 ppm, 72 hours exposure): 93%
